# Several values for one entry are separate records, joined by “and”; a condition that tells them apart may be missing. Equal values may be shown once.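 48-hour exposure; five concentrations; linearly interpolated endpoints. GI50: concentration for 50% inhibition of growth. TGI is the concentration that stops growth completely.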
# Tested on: MDA-MB-468 breast
# Test: inhibition of tumour cell growth, NCI panel, 48 h
Structure (SMILES),GI50,TGI
C#CCOc1cccc(-c2nc(N)nc(Nc3ccccc3SSc3ccccc3Nc3nc(N)nc(-c4cccc(OCC#C)c4)n3)n2)c1,> 33.3 µM,> 33.3 µM
Nc1ccc(-c2nc3ccc(Cc4ccc5nc(-c6ccc(N)cc6)[nH]c5c4)cc3[nH]2)cc1,1.47 µM,2.9 µM
COc1ccc(CCN2COc3c([C@@H](C)CCC=C(C)C)ccc(C)c3C2)cc1OC,1.23 µM,2.95 µM
CN(C)CCN1C(=O)c2ccc3c4c(ccc(c24)C1=O)C(=O)N(CCN=C=S)C3=O,0.0263 µM,0.101 µM
Cc1[nH]c2ccccc2c(=O)c1CC=C(Cl)Cl,18.8 µM,> 100 µM
O=c1cc(NC2CCN(CCCc3ccccc3)CC2)c2cc(Cl)ccc2o1,5.82 µM,21.8 µM
CN(C)C(=O)[C@H](O)[C@H](Cc1ccccc1)NC(=O)c1cc2cc(Cl)ccc2[nH]1,20.1 µM,77.6 µM
CC/C=C\C[C@H]1C/C=C2/C(=O)C=C[C@@H]2C/C=C\CCCC(=O)O1,0.854 µM,2.73 µM
Nc1nc(F)nc2c1ncn2C1OC(CO)C(O)C1O (stereo unspecified),> 85.6 µM,> 100 µM
O=C1Nc2ccc(F)cc2/C1=C/c1ccc[nH]1,0.203 µM,1.5 µM
CC(C)C[C@H](NC(=O)/C=C/Cn1ccc2ccccc2c1=O)B(O)O,0.681 µM,4.71 µM
COc1cc(C(=O)c2cc(C)c3[nH]c4ccc(C)cc4c3c2C)cc(OC)c1OC,< 0.01 µM,3.68 µM
COc1ccc(/C=N/NC(=O)c2[nH]c3ccc(Br)cc3c2-c2ccccc2)o1,0.0588 µM,3.36 µM
COc1ccc(C(=O)COc2ccc(/C=C3\COc4ccc(OC)cc4C3=O)cc2)cc1,18 µM,88.2 µM
CCOc1cc(C(C)(C)C)ccc1C1=N[C@@](C)(c2ccc(Cl)cc2)[C@@](C)(c2ccc(Cl)cc2)N1C(=O)N1CCN(CCCS(C)(=O)=O)CC1,2.53 µM,7.92 µM
O=S(=O)(Nc1cc(Sc2cccc3cccnc23)c(O)c2ccccc12)c1ccccc1,1.29 µM,3.2 µM
Cc1ccc2[nH]c(O)c(N=Nc3ccc(S(N)(=O)=O)cc3)c2c1,6.67 µM,> 25 µM

Structure (SMILES),GI50,TGI
Cc1ncc(CCCN(C)C)cc1Nc1ncc2c(n1)-c1ccc(C(F)(F)F)cc1NC(=S)C2,< 0.0212 µM,1.58 µM
C[C@H](O)C(=O)N1CCC(CCn2c(Sc3cc4c(cc3Br)OCO4)nc3c(N)ncnc32)CC1,0.482 µM,2.92 µM
COc1ccc(-c2nn(-c3ccc(NC(=O)Nc4cc(C(F)(F)F)cc(C(F)(F)F)c4)cc3)cc2-c2ccncc2)cc1Cl,1.8 µM,6 µM
Cn1c(=O)c(Cc2ccccc2F)cc2cnc(NC3CCOCC3)nc21,> 25 µM,> 25 µM
CCc1nc(C(N)=O)c(Nc2ccc(N3CCC(N4CCN(C)CC4)CC3)c(OC)c2)nc1NC1CCOCC1,12.2 µM and 14 µM,27.7 µM and > 2.37 µM and 31.8 µM
CC1(C)[C@@H](OC(N)=O)[C@H]2O[C@H]2[C@]2(C=O)[C@H]3CC[C@]4(C)[C@@H](c5ccc(=O)oc5)[C@@H](Cl)C[C@]4(O)C3=CC[C@@H]12,0.0062 µM,0.0178 µM
CCOC(=O)c1sc(NCC(=O)Nc2cccc([N+](=O)[O-])c2)c(C(=O)OCC)c1C,0.67 µM,2.23 µM
Cc1ccc(-c2nc3ccc(Cl)cc3c(=O)n2N2C(=O)CSC2c2ccccc2Cl)cc1 (stereo unspecified),57.6 µM,> 100 µM
CCn1c(SCc2ccc(C)cc2)nnc1-c1nn(-c2ccc(Cl)cc2Cl)c(-c2ccc(Cl)cc2)c1C,0.623 µM,10.6 µM
COc1cccc2c(=O)c3c(sc12)c(N1CCNCC1)nc1ccccc13,1.66 µM,3.3 µM
CC1=C[C@H]2c3c(c(O)c(O)c4oc(-c5ccccc5)cc(=O)c34)[C@H](c3cc(O)c(O)c4oc(-c5ccccc5)cc(=O)c34)[C@H]2C(C)(C)C1,1.38 µM,4.76 µM
COc1ccc(/C=C/C(=O)C(CC2CCC2)C(=O)/C=C/c2ccc(OC)c(OC)c2)cc1OC,1.59 µM,3.69 µM
COc1cc2[nH]c(C(=O)c3cc(OC)c(OC)c(OC)c3)c(N)c2cc1C#CC1CC1,2.08 µM,8.28 µM
COc1cc(/C=C/c2cc(/C=C/c3ccc(O)c(OC)c3)n(C(=O)Nc3ccc(C)cc3C)n2)ccc1O,0.242 µM,0.75 µM
CCCCCCCCCCCCCCCCCCOc1ccccc1CC(=O)OCC[N+]1(C)CCCC1,1.7 µM,4.51 µM
CC(C)(C[C@H]1CN(S(=O)(=O)c2cccc(C(F)(F)F)c2)c2cc(-c3cc(F)cc(OC(F)F)c3)ccc2O1)C(=O)O,3.41 µM,25.1 µM

# From PubChem BioAssay (NCI)
